We go through 25 compounds from BindingDB's records for doi:10.1021/jm0304156 (Harvard Medical School, 2003).

This test is described as follows: Binding affinity against opioid receptor delta 1 using [3H]naltrindole as radioligand in guinea pig brain membranes.

As usually defined, the Ki is a measure of affinity in units of concentration, obtained from inhibition or displacement. Low values mean a stronger hold on the target, high ones a looser hold on the target. As for `O=C1c2ccc(OCC3CCC3)cc2[C@@]23CCCC[C@H]2[C@@H]1N(CC1CCC1)CC3` [3-O-Cyclobutylmethyl-10-keto-N-cyclobutylmethylmorphinan], the Ki is over 10000 nM.

Compound `O=C1c2ccc(-c3nnn[nH]3)cc2[C@@]23CCCC[C@H]2[C@@H]1N(CC1CCC1)CC3` [3-Tetrazolo-10-keto-N-cyclobutylmethylmorphinan] displayed a Ki of 1800 nM.

`CN1CC[C@]23CCCC[C@H]2[C@H]1Cc1ccc(-c2nnn[nH]2)cc13` [3-(1'H-Tetrazol-5'-yl)-N-methylmorphinan] showed a Ki of over 10000 nM.

On to `NC(=O)c1ccc2c(c1)[C@@]13CCCC[C@H]1[C@@H](C2)N(CC1CCC1)CC3` [3-Carboxamido-N-cyclobutylmethylmorphinan], for which the affinity corresponds to a Ki of 4 nM.

`CN1CC[C@]23CCCC[C@H]2[C@H]1Cc1ccc(C(N)=O)cc13` [3-Carboxamido-N-methylmorphinan] yielded an inhibition constant (Ki) of 13 nM.

Turning to `CN1CC[C@]23CCCC[C@H]2[C@H]1C(=O)c1ccc(O)cc13` [3-Hydroxy-10-keto-N-methylmorphinan], the Ki came out at 1200 nM.

As to `O=C1c2ccc(O)cc2[C@@]23CCCC[C@H]2[C@@H]1N(CC1CC1)CC3` [3-Hydroxy-10-keto-N-cyclopropylmethylmorphinan], the Ki worked out at 150 nM.

In turn, `CN1CC[C@]23CCCC[C@H]2[C@H]1Cc1ccc(C#N)cc13` [3-Cyano-N-methylmorphinan] yielded a Ki of over 1000 nM.

`COc1ccc2c(c1)[C@@]13CCCC[C@H]1[C@H](NCC3)C2=O` [3-Methoxy normorphinan] yielded a Ki of 16 nM.

With `NCc1ccc2c(c1)[C@@]13CCCC[C@H]1[C@@H](C2)N(CC1CCC1)CC3` [3-Aminomethyl-N-cyclobutylmethylmorphinan], the affinity corresponds to a Ki of 410 nM.

`CN1CC[C@]23CCCC[C@H]2[C@H]1Cc1ccc(CN)cc13` [3-Aminomethyl-N-methylmorphinan] returned an inhibition constant Ki of 2500 nM.

In turn, `O=C(O)c1ccc2c(c1)[C@@]13CCCC[C@H]1[C@@H](C2=O)N(CC1CCC1)CC3` [3-Carboxyl-10-keto-N-cyclobutylmethyl morphinan] registered a Ki of 800 nM.

`N#Cc1ccc2c(c1)[C@@]13CCCC[C@H]1[C@@H](C2=O)N(CC1CCC1)CC3` [3-Cyano-10-keto-N-cyclobutylmethylmorphinan] had a Ki of over 10000 nM.

The compound `NC(=O)c1ccc2c(c1)[C@@]13CCCC[C@H]1[C@@H](C2)N(CC1CC1)CC3` [3-Carboxamido-N-cyclopropylmethylmorphinan] came in with a Ki of 1 nM.

`COCCN1CC[C@]23CCCC[C@H]2[C@H]1C(=O)c1ccc(O)cc13` [3-Hydroxy-10-keto-N-(2-methoxyethyl)morphinan] showed an inhibitory constant (Ki) of over 10000 nM.

Compound `N#Cc1ccc2c(c1)[C@@]13CCCC[C@H]1[C@@H](C2)N(CC1CCC1)CC3` [3-Cyano-N-cyclobutylmethylmorphinan] displayed a Ki of 1900 nM.

As to `Nc1ccc2c(c1)[C@@]13CCCC[C@H]1[C@@H](C2=O)N(CC1CCC1)CC3` [3-Amino-10-keto-N-cyclobutylmethylmorphinan], the Ki worked out at 600 nM.

For the compound `NC(=O)c1ccc2c(c1)[C@@]13CCCC[C@H]1[C@@H](C2=O)N(CC1CCC1)CC3` [3-Carboxamido-10-keto-N-cyclobutylmethylmorphinan], affinity was put at a Ki of 50 nM.

In the case of `O=C1c2ccc(O)cc2[C@@]23CCCC[C@H]2[C@@H]1N(C[C@@H]1CCCO1)CC3` [3-Hydroxy-10-keto-N-(tetrahydrofuran-2-yl)methylmorphinan], the affinity corresponds to a Ki of 1 nM.

On to `c1cc2c(cc1-c1nnn[nH]1)[C@@]13CCCC[C@H]1[C@@H](C2)N(CC1CCC1)CC3` [3-(1'H-Tetrazol-5'-yl)-N-cyclobutylmethylmorphinan], for which the Ki is over 10000 nM.

For the compound `O=C1c2ccc(O)cc2[C@@]23CCCC[C@H]2[C@@H]1N(CCF)CC3` [3-Hydroxy-10-keto-N-(2-fluoroethyl)morphinan], the Ki was over 10000 nM.

Compound `O=C1c2ccc(O)cc2[C@@]23CCCC[C@H]2[C@@H]1NCC3` [3-hydroxy-normorphinan] came in with a Ki of over 10000 nM.

The compound `C#CCOc1ccc2c(c1)[C@@]13CCCC[C@H]1[C@@H](C2=O)N(CC#C)CC3` [3-O-Propargyl-10-keto-N-propargylmorphinan] yielded a Ki of over 10000 nM.

Take `O=C1c2ccc(O)cc2[C@@]23CCCC[C@H]2[C@@H]1N(Cc1ccc2ccccc2c1)CC3` [3-Hydroxy-10-keto-N-(2-naphthylmethyl)morphinan]: the Ki is over 10000 nM.

In turn, `CC(C)=CCN1CC[C@]23CCCC[C@H]2[C@H]1C(=O)c1ccc(O)cc13` [3-Hydroxy-10-keto-N-(3,3-dimethylallyl)morphinan] returned a Ki of 1100 nM.
